Reference: patent publication US6057325A, “Hexahydro-pyrido(4,3-b)indole derivatives as antipsychotic drugs” (Janssen Pharmaceutia, N.V., priority 1996, dated 2000)

Legend:
Assay type in all cases: in vivo
[1] = system: dopamine; assay: Combined ATN test in rats: apomorphine (APO) challenge, central dopamine antagonism; conditions: Rattus norvegicus, sc, subcutaneous pretreatment, dose protecting 50% of animals, central dopamine antagonistic activity
[2] = system: serotonin 5HT2 -receptors; assay: Combined ATN test in rats: tryptamine (TRY) challenge, central and peripheral serotonin antagonism; conditions: subcutaneous pretreatment, dose protecting 50% of animals; for TRY convulsions ED50: central serotonin antagonistic activity; for TRY hyperaemia ED50: peripheral serotonin antagonistic activity
From the text: The central dopamine antagonistic and serotonin antagonistic activity of the subject compounds is evidenced by the experimental data obtained in the combined apomorphine (APO), tryptamine (TRY) and norepinephrine (NOR) test in rats. Said combined apomorphine, tryptamine and norepinephrine test is described in Arch. Int. Pharmacodyn., 227, 238-253 (1977) and provides an empirical evaluation of the relative specificity with which drugs may effect particular neurotransmitter systems centrally (CNS) as well as peripherally. […] Central dopamine antagonism is evaluated by challenging rats, subcutaneously pretreated with different doses of the test compound, with apomorphine which is a dopamine agonist. Next, serotonin antagonism is evaluated by challenging the same rats, subcutaneously pretreated with different doses of the test compound, with tryptamine which is an agonist at serotonin 5HT2 -receptors. Both central and peripheral serotonin antagonism can be assessed in this test. Centrally acting serotonin antagonists are potential antipsychotic drugs, in particular when simultaneously displaying dopamine antagonism in the first part of this test. Finally, α-adrenergic antagonistic activity of the test compounds is evaluated by challenging the same rats, subcutaneously pretreated with different doses of the test compound, with norepinephrine which is an α-adrenergic agonist.
The experimental data are summarized in Table 3 and expressed as ED50 values in mg/kg body weight, which are defined as the dose at which each of the tested compounds protects 50% of the tested animals from a relevant response evoked by the above-mentioned challenging substances. Column APO lists the results of the apomorphine challenge, indicating central dopamine antagonistic activity. Column TRY convulsions and TRY hyperaemia list the results of the tryptamine challenge, indicating central and peripheral serotonin antagonistic activity respectively. Column NOR lists the results of the norepinephrine challenge, indicating α-adrenergicantagonist activity. The favourable pharmacological properties of the compounds of formula (I) lie in their potent central dopamine (column APO) and serotonin (column TRY convulsions) antagonistic activity.

[3] = system: α-adrenergic; assay: Combined ATN test in rats: norepinephrine (NOR) challenge, α-adrenergic antagonist activity; conditions: Rattus norvegicus, sc, subcutaneous pretreatment, dose protecting 50% of animals

Cc1nc2sccn2c(=O)c1CCN1CC[C@H]2Nc3ccccc3[C@@H]2C1 (racemic) [Compound 11, (±)-trans-6-[2-(1,3,4,4a,5,9b-hexahydro-2H-pyrido[4,3-b]indol-2-yl)ethyl]-7-methyl-5H-thiazolo[3,2-a]pyrimidin-5-one]
ED50 [1]: 0.31 mg/kg | TRY convulsions ED50 [2]: 0.31 mg/kg | TRY hyperaemia ED50 [2]: ≤ 0.04 mg/kg

Cc1nc2sccn2c(=O)c1CCN1CC[C@H]2Nc3ccc(F)cc3[C@@H]2C1 (racemic) [Compound 15, (±)-trans-6-[2-(8-fluoro-1,3,4,4a,5,9b-hexahydro-2H-pyrido[4,3-b]indol-2-yl)ethyl]-7-methyl-5H-thiazolo[3,2-a]pyrimidin-5-one]
ED50 [1]: 0.31 mg/kg | TRY convulsions ED50 [2]: 0.31 mg/kg | TRY hyperaemia ED50 [2]: ≤ 0.0025 mg/kg | ED50 [3]: > 10 mg/kg

Cc1nc2n(c(=O)c1CCN1CC[C@@H]3[C@@H](C1)c1cc(F)ccc1N3c1ccc(F)cc1)CCS2 (racemic) [Compound 23, (±)-trans-6-[2-[8-fluoro-5-(4-fluoro-phenyl)-1,3,4,4a,5,9b-hexahydro-2H-pyrido[4,3-b]indol-2-yl]ethyl]-2,3-dihydro-7-methyl-5H-thiazolo[3,2-a]pyrimidin-5-one]
ED50 [1]: 0.12 mg/kg | TRY convulsions ED50 [2]: 0.08 mg/kg | TRY hyperaemia ED50 [2]: ≤ 0.01 mg/kg | ED50 [3]: 0.03 mg/kg

Cc1nc2scc(C)n2c(=O)c1CCN1CC[C@H]2Nc3ccccc3[C@@H]2C1 (relative stereo) [Compound 12]
ED50 [1]: 1.25 mg/kg | TRY convulsions ED50 [2]: 1.25 mg/kg | TRY hyperaemia ED50 [2]: 0.02 mg/kg | ED50 [3]: > 10 mg/kg

Cc1nc2n(c(=O)c1CCN1CC[C@H]3Nc4ccccc4[C@@H]3C1)CCS2 (relative stereo) [Compound 13]
ED50 [1]: 2.5 mg/kg | TRY convulsions ED50 [2]: 5 mg/kg | TRY hyperaemia ED50 [2]: ≤ 0.04 mg/kg

Cc1nc2ccccn2c(=O)c1CCN1CC[C@H]2Nc3ccccc3[C@@H]2C1 (relative stereo) [Compound 14]
ED50 [1]: 0.31 mg/kg | TRY convulsions ED50 [2]: 1.25 mg/kg | TRY hyperaemia ED50 [2]: ≤ 0.16 mg/kg

Cc1nc2scc(C)n2c(=O)c1CCN1CC[C@H]2Nc3ccc(F)cc3[C@@H]2C1 (relative stereo) [Compound 16]
ED50 [1]: 0.25 mg/kg | TRY convulsions ED50 [2]: 0.45 mg/kg | TRY hyperaemia ED50 [2]: 0.015 mg/kg | ED50 [3]: > 10 mg/kg

Cc1nc2ccccn2c(=O)c1CCN1CC[C@H]2Nc3ccc(F)cc3[C@@H]2C1 (relative stereo) [Compound 17]
ED50 [1]: 0.08 mg/kg | TRY convulsions ED50 [2]: 0.5 mg/kg | TRY hyperaemia ED50 [2]: ≤ 0.04 mg/kg

Cc1nc2n(c(=O)c1CCN1CC[C@H]3Nc4ccc(F)cc4[C@@H]3C1)CCCC2 (relative stereo) [Compound 18]
ED50 [1]: 0.31 mg/kg | TRY convulsions ED50 [2]: 2 mg/kg | TRY hyperaemia ED50 [2]: 0.02 mg/kg

Cc1nc2sccn2c(=O)c1CCN1CC[C@@H]2[C@@H](C1)c1ccccc1N2C (relative stereo) [Compound 19]
ED50 [1]: 8 mg/kg | TRY convulsions ED50 [2]: 1.25 mg/kg | TRY hyperaemia ED50 [2]: 0.31 mg/kg | ED50 [3]: 5 mg/kg

Cc1nc2ccccn2c(=O)c1CCN1CC[C@@H]2[C@@H](C1)c1ccccc1N2C (relative stereo) [Compound 20]
ED50 [1]: 1.25 mg/kg | TRY convulsions ED50 [2]: 1.25 mg/kg | TRY hyperaemia ED50 [2]: ≤ 0.63 mg/kg | ED50 [3]: 5 mg/kg

Cc1nc2sccn2c(=O)c1CCN1CC[C@H]2[C@H](C1)c1cc(F)ccc1N2c1ccc(F)cc1 (relative stereo) [Compound 22]
ED50 [1]: 1.25 mg/kg | TRY convulsions ED50 [2]: 1.25 mg/kg | TRY hyperaemia ED50 [2]: 0.08 mg/kg | ED50 [3]: 0.5 mg/kg

Cc1nc2scc(C)n2c(=O)c1CCN1CC[C@@H]2[C@@H](C1)c1cc(F)ccc1N2c1ccc(F)cc1 (relative stereo) [Compound 24]
ED50 [1]: 5 mg/kg | TRY convulsions ED50 [2]: 1.25 mg/kg | TRY hyperaemia ED50 [2]: ≤ 0.04 mg/kg

Cc1nc2n(c(=O)c1CCN1CC[C@@H]3[C@@H](C1)c1cc(F)ccc1N3c1ccc(F)cc1)CCCC2 (relative stereo) [Compound 25]
ED50 [1]: 0.31 mg/kg | TRY convulsions ED50 [2]: 0.12 mg/kg | TRY hyperaemia ED50 [2]: 0.02 mg/kg

Cc1nc2sccn2c(=O)c1CCN1CC[C@H]2Nc3ccc(Cl)cc3[C@@H]2C1 (relative stereo) [Compound 26]
ED50 [1]: 0.03 mg/kg | TRY convulsions ED50 [2]: 0.02 mg/kg | TRY hyperaemia ED50 [2]: 0.005 mg/kg

Cc1nc2scc(C)n2c(=O)c1CCN1CC[C@H]2Nc3ccc(Cl)cc3[C@@H]2C1 (relative stereo) [Compound 27]
ED50 [1]: 0.31 mg/kg | TRY convulsions ED50 [2]: 0.31 mg/kg | TRY hyperaemia ED50 [2]: 0.005 mg/kg

Cc1nc2ccccn2c(=O)c1CCN1CC[C@H]2Nc3ccc(Cl)cc3[C@@H]2C1 (relative stereo) [Compound 28]
ED50 [1]: 0.08 mg/kg | TRY convulsions ED50 [2]: 0.12 mg/kg | TRY hyperaemia ED50 [2]: 0.005 mg/kg | ED50 [3]: > 10 mg/kg

COc1ccc2c(c1)[C@@H]1CN(CCc3c(C)nc4sccn4c3=O)CC[C@H]1N2 (relative stereo) [Compound 29]
ED50 [1]: 5 mg/kg | TRY convulsions ED50 [2]: 5 mg/kg | TRY hyperaemia ED50 [2]: 0.02 mg/kg

COc1ccc2c(c1)[C@@H]1CN(CCc3c(C)nc4ccccn4c3=O)CC[C@H]1N2 (relative stereo) [Compound 30]
ED50 [1]: ≥ 10 mg/kg | TRY convulsions ED50 [2]: 2 mg/kg | TRY hyperaemia ED50 [2]: ≤ 0.16 mg/kg

Cc1nc(NCc2ccccc2)n(C)c(=O)c1CCN1CC[C@H]2Nc3ccc(F)cc3[C@@H]2C1 (relative stereo) [Compound 31]
ED50 [1]: 1.25 mg/kg | TRY convulsions ED50 [2]: ≥ 10 mg/kg | TRY hyperaemia ED50 [2]: ≤ 0.16 mg/kg | ED50 [3]: > 10 mg/kg
